Assay results published in patent US20260183432A1, “IMAGING AGENTS FOR DETECTING CD206+ MACROPHAGES” (THE GENERAL HOSPITAL CORPORATION, priority 2022, published 2026).
Entries after “also recorded” stand apart in the source; their conditions may differ. Like-named read-outs stand apart in the source and are kept apart here.

Columns and labels:
[1] = in vitro relaxivity (r1), Bruker Minispect; assay type: physicochemical
Procedure: Relaxation time (T1) of Mann2-DTPA-Gd/MannGdFish at concentrations of 0.1, 0.2, 0.3, 0.5, 0.6, 0.75, and 1 mM in PBS was measured on the Bruker Minispect (Bruker Analytics, MA) at 0.47 T (20 MHz) at 40° C. The slope value of the linear function of 1/T1 (s) to their corresponding concentrations is defined as the relaxivity (n=3 for each concentration).

[2] = test system: M1/M2 macrophages and HEK293 cells; test: ICP-MS of gadolinium on cells incubated with agent; assay type: cell-based
Procedure: M1 and M2 differentiated macrophages were incubated with 1 mM of Mann2-DTPA-Gd for 1 h at 4° C. After washing with PBS (×3), cells were collected, digested with nitric acid (70%, 200 μL) overnight and subjected to ICP-MS to detect the amount of Gd.
M1 and M2 polarized differentiation. Raw 264.7 cells (Passage 8 from the cell core of center for Systems Biology at Massachusetts General Hospital, Boston) in 10 mL petri dishes were cultured with Dulbecco's modified eagle medium with high glucose (DMEM, Thermo Fisher Scientific, NY, USA) containing 10% of fetal bovine serum (FBS, Sigma-Aldrich, MO, USA) and 0.5% streptomycin/penicillin (Cellgro) until reaching 80% of confluency. Then differentiating media containing IFN-gamma (100 ng/ml the above medium) for M1 polarization and IL-4 (100 ng/mL) for M2 polarization were added to the dishes, respectively. After 24 h, the M1 and M2 polarized macrophages were ready for the following experiments.

CD206+ macrophages [3] = test: MR imaging in mouse model of cutaneous wound healing; assay type: in vivo
Procedure: Eight-to nine-week-old C57BL/6J female mice were used for MRI of wound healing and glioma (Jackson Laboratory, ME). The generation of wound healing and glioma is described in Examples 14 and 15, respectively. The mice with subcutaneous wounds were imaged on days 1, 4, and 7 longitudinally or on day 7. Mice with glioma were imaged on the third week. All the mice were imaged pre- and at 0, 15, 30, 45 and 60 min after 0.3 mmol/kg of Mann2-DTPA-Gd or MannGdFish was administered intravenously via a tail vein using serial T1 rapid acquisition with relaxation enhancement (RARE) sequence (TR: 935.77 ms, TE: 13.59 ms, averages: 12, rare factor: 4, 256×256×48 matrix size, 0.156×0.156×1 mm^3 voxel size) with chemical fat suppression using a Hermitian pulse shape with an 8.253 ms pulse and 701.19 Hz bandwidth 3.5 ppm down from the water peak and respiratory gating on a 4.7 T small animal MR scanner (Bruker, Cambridge, MA) with a 3 cm quadrature volume coil (Rapid MR International, Germany). Regions of interest (ROIs) were drawn and the contrast-to-noise ratios (CNRs, CNRpre-contrast subtracted) were calculated by a radiologist with over 20 years of experience blinded to the identity of the imaging agent used and the strain of the mice (n=3 per group).
Wound healing procedure. Seven-to ten-week-old C57BL/6J female mice (The Jackson Laboratories, ME) and mannose-receptor deficient mice were used in this study. A circular outline on the back of a mouse was made with a 4 mm biopsy punch (Kai Medical, Japan) under anesthesia using isoflurane. Then a full-thickness excisional wound was generated that extended through the subcutaneous tissue. A silicone splint was glued over the wound, anchored with 6-0 nylon sutures, and covered with a transparent occlusive dressing (OpSite). Xylazine/norepinephrine (100 μL) were intraperitoneally injected twice a day for two days and the mice were monitored daily.

CD206+ TAMs = test: MR imaging of experimental glioma; assay type: in vivo, mouse; conditions: third week, 30 and 60 min post-injection
Procedure: Eight-to nine-week-old C57BL/6J female mice were used for MRI of wound healing and glioma (Jackson Laboratory, ME). The generation of wound healing and glioma is described in Examples 14 and 15, respectively. The mice with subcutaneous wounds were imaged on days 1, 4, and 7 longitudinally or on day 7. Mice with glioma were imaged on the third week. […] Regions of interest (ROIs) were drawn and the contrast-to-noise ratios (CNRs, CNRpre-contrast subtracted) were calculated by a radiologist with over 20 years of experience blinded to the identity of the imaging agent used and the strain of the mice (n=3 per group). […]
Eight- to nine-week-old C57BL/6J female mice were used in this experiment (Jackson laboratory, ME). […] The mice then were monitored daily for signs of discomfort or neurological symptoms.

CD206+ macrophages [4] = test: MR imaging in mouse model of cutaneous wound healing; assay type: in vivo; conditions: 45-75 min post-injection, wildtype mice

For `O=C([O-])CN(CCN(CC(=O)[O-])CC(=O)NC1C(O)OC(CO)C(O)C1O)CCN(CC(=O)[O-])CC(=O)NC1C(O)OC(CO)C(O)C1O.[Gd+3]` (stereo not drawn) [Mann2-DTPA-Gd], the “relaxivity (r1)” value [1] was 3.6 mmol⁻¹ s⁻¹, the “relaxivity (r1)” value ([1]; in PBS, 0.47 T, 40° C.) was 3.6 mM⁻¹ s⁻¹ and the “amount of gadolinium on M2 macrophages versus M1 macrophages and HEK293 cells” value [2] was “much higher than that on M1 macrophages and HEK293 cells; also recorded: markedly higher than that in M1 macrophages and HEK293 cells”. The “CNR on day 7 compared to day 4” value (CD206+ macrophages [3]; 45 min post-injection, wildtype mouse) was “about two-fold”, the “CNR on day 7 versus days 1 and 4” value (CD206+ macrophages [3]; 60 min post-injection, longitudinal imaging) was “much higher compared to that on days 1 and 4” and the “signal intensity / CNR time course” value (CD206+ macrophages [3]; mannose receptor-knockout mice, day 7, 0.3 mmol/kg) was “decreased significantly after 15 min post-injection compared to that in wildtype mice; also recorded: decreased over time after initially peaking at 15 min post-injection”. For the same compound, the “contrast-to-noise ratio (CNR) time course” value (CD206+ macrophages [3]; wildtype mice, day 7 after wound induction) was “increasing over time until 45 min post-injection prior to slowly decreasing; also recorded: slow decrease of CNR”, the “contrast enhancement of glioma” value (CD206+ TAMs) was “Substantial contrast enhancement” and the “CNR on day 7 compared to day 4” value (CD206+ macrophages [4]) was 2- to 3 fold.
